Where two headings read alike, the source gives them in different places.

On the set-up of series [1]: method as in PMID 31787491, PMID 34710625. Conditions: previously reported tricycles, Figure 2; cited from earlier work.
Details of series [2]: method as in PMID 31787491, PMID 34710625. Particulars: previously reported tricycles, Figure 2; cited from earlier work. The source holds these as a separate data set.
The nature of series [3]: Rat plasma-to-brain level (PBL) cassette, brain distribution. Particulars: SD rat, 0.2 mg/kg IV. Type of series: in vivo.
Description: Blood samples were collected serially from a surgically implanted carotid artery catheter in each animal over multiple post-administration time points (0.033, 0.117, 0.25, 0.5, 1, 2, 4, 7, and 24 hours) into chilled, K2EDTA anticoagulant-fortified tubes and immediately placed on wet ice. The blood samples were then centrifuged (1700 rcf, 5 minutes, 4 °C) in order to obtain plasma samples, which were stored at -80 °C until
For determination of the brain over plasma ratio (Kp), compounds were formulated in 8% ethanol, 32% PEG400 and 60% DMSO (v/v/v) and administered as a single 0.2 mg/kg IV dose (1 mL/kg) to male, Sprague Dawley rats (n = 1; 316 gram body weights) via injection into a surgically-implanted jugular vein catheter. At 15 min post dosing, blood sample was collected serially (i.e., terminally) into chilled, K2EDTA anticoagulant-fortified tube and immediately placed on wet ice. The blood sample was then centrifuged (1700 rcf, 5 minutes, 4 °C) to obtain plasma sample. At the same post-administration time point, whole brain sample was obtained by rapid dissection, rinsed with PBS, and immediately frozen in individual tissue collection box (dry ice). All brain and plasma samples were stored at -80 °C until analysis by LC-MS/MS.
Samples preparation for bioanalysis
Plasma samples from the in-life phase of the study were thawed at ambient temperature (benchtop), and then aliquots (20 µL per sample) were transferred to a 96-shallow-well (V-bottom) plate. […] Acetonitrile (120 µL) containing IS (10 nM carbamazepine) was added to each well of the plate to precipitate protein. The plate was then centrifuged (4000 rcf, 5 minutes, ambient temperature), and resulting supernatants (60 µL each) were transferred to a new 96-shallow-well (V-bottom) plate containing an equal volume (60 µL per well) of water (Milli-Q purified).
Preparation of brain samples was identical to that of plasma samples except for the following modifications. While thawing, brains were weighed (inside their collection boxes using a universal empty collection box tare weight) and then subjected to mechanical homogenization (Mini-BeadBeater™, BioSpec Products, Inc., Bartlesville, OK) in the presence of zirconia/silica beads (1.0 mm) and extraction buffer (isopropanol:water, 7:3, v/v; 3 mL per sample, corrected for post-quantitation).
Series [4] can be described thus: Intrinsic clearance in rat liver microsomes. Type of series: in vitro ADME. The procedure:
(§1) Intrinsic Clearance in Rat and Human Liver Microsomes
(§2) The in vitro intrinsic clearance (CL int) was investigated in commercially obtained hepatic microsomes from rat and human donors using the substrate depletion (i.e., loss-of-parent vs. time, or t 1/2 method) approach with analyte detection via liquid chromatography-tandem mass spectrometry (LC-MS/MS). For each species, mean %parent remaining values at each time point were calculated from replicates raw data (analyte:IS peak area ratios) and used to determine in vitro t 1/2 and CLint.
(§3) Experiments were carried out using a robot-assisted (TECAN model Evo 200). Compound was incubated (1 µM final concentration) in buffer (100 mM potassium phosphate pH 7.4 with 3 mM MgCl2) containing hepatic microsomes (0.5 mg/mL final concentration) from multiple species, discretely, at 37 °C under constant orbital shaking. After 5 minutes (pre-incubation), reactions were initiated by addition of nicotinamide adenine dinucleotide phosphate (NADPH, 1 mM final concentration). At selected time intervals (0, 3, 7, 15, 25, and 45 minutes) post-addition of NADPH, aliquots (50 µL) were taken and placed into a 96-shallow-well plate containing ice cold acetonitrile (150 µL) with carbamazepine (IS, 50 nM). The plates were then centrifuged (3000 rcf at 4 °C) for 10 minutes. The supernatants were transferred to a new 96-shallow-well daughter plate and diluted (1:1 v/v) with water (Milli-Q filtered). The plates were then sealed in preparation for LC-MS/MS analysis (see below).
(§4) Raw LC-MS/MS peak area data generated from the assay samples were used to construct natural log-transformed %parent remaining vs. time plots (using t = 0 minute post-NADPH addition sample data as starting point set to 100%). In vitro compound half-life (t 1/2) values were obtained using the following […]
(§5) k is the slope from linear regression analysis of the natural log-transformed data (using means from Where all replicates at each time point). Resulting t 1/2 values were then used to calculate hepatic CLint values according to the following equation and with the use of species-specific scale-up factors for liver weight (grams) per total body weight (kg): […]
(§6) CLint = in vitro t1/2 x 0.5 mg microsomes x 1 gram liver x kg body wt aScale-up factors used are 45 (rat) and 20 (human).2
(§7) Predicted hepatic clearance (CLhep) was calculated using the following equation: […]
(§8) Qh represents hepatic blood flow (mL/min/kg): 21 for human, 70 for rat, and 90 for mouse.
(§9) Prepared samples were injected (10 µL each) onto an AB Sciex Triple Quad 4500 mass spectrometer system with an Agilent 1260 Infinity II pump and autosampler. Mass spectrometer conditions are described in Table S1. Quantitation of compounds was performed via AB Sciex Multiquant software using the raw analyte:IS peak area ratios. The typical detection range was 0.5 ng/mL to ≥ 5,000 ng/mL utilizing a quadratic equation regression with 1/x2 weighting. […]
(§10) Table S1. LC-MS/MS Conditions*
(§11) Mobile phase A 0.5% Formic Acid in Water
(§12) Mobile phase B 0.5% Formic Acid in Acetonitrile
(§13) Gradient Time % Mobile Phase B
In general terms: Liver microsomes are a subcellular fraction often used to study metabolism.

Another series concerns the target T1, human M4 (hM4) (Homo sapiens, UniProt P08173).
T1 construct: expressed in transfected cells
T1 sequence (P08173 1-479): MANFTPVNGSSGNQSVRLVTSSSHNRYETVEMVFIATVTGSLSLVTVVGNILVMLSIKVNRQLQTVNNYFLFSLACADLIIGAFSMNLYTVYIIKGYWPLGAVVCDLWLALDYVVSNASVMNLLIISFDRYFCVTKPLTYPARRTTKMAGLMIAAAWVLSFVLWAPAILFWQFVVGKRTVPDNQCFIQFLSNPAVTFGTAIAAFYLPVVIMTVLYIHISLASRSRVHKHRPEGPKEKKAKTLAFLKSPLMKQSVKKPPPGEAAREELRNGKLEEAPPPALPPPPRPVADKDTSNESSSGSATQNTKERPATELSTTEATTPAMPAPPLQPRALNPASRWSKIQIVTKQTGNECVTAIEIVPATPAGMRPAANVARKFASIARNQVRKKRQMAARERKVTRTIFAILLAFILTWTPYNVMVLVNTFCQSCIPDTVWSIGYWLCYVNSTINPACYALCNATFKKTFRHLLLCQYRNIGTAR
Put plainly: Calcium mobilization assay, hM4/Gqi5-CHO cells, EC20 acetylcholine (PAM). Type of series: cell-based. (Calcium assays in cells follow changes in intracellular calcium, usually with a dye or a luminescent sensor.)

Series [5] is described as follows: Intrinsic clearance in human liver microsomes. The series is classed as in vitro ADME. The procedure: as §1, §2, §3, §4, §5, §6, §7, §8, §9, §10, §11, §12, §13
Series [6] is described as follows: Binding in plasma from rat (equilibrium dialysis). Conditions: read-out: rat fu,plasma. Type of series: in vitro ADME. The procedure: (§14) Binding in plasma from rat and human.
(§15) Determination of compounds’ fraction unbound (f u) in plasma from rat and human was conducted in vitro via equilibrium dialysis using HTDialysis membrane plates. Dialysis membranes (four paired strips per HTD assay) were hydrated as described by the manufacturer and inserted into the HTD plate, which was assembled and prepared for sample addition by the dispensing of blank buffer (DPBS, 100 µL/well) into the ‘top half’ of each membrane-split well. Each compound was diluted into plasma from each species (5 µM final concentration), which was aliquoted in triplicate to the ‘bottom half’ of the prepared HTD plate wells. The HTD plate was sealed and incubated for 6 hours at 37 °C. Following incubation, each well (both top and bottom halves) were transferred (20 µL) to the corresponding wells of a 96-shallow-well (V-bottom) plate. The daughter plates were then matrix-matched (buffer side wells received equal volume of plasma, and plasma side wells received equal volume of buffer), and extraction solution (120 µL; acetonitrile containing 50 nM carbamazepine as IS) was added to all wells of both daughter plates to precipitate protein and extract test article. The plates were then sealed and centrifuged (3500 rcf) for 10 minutes at ambient temperature. Supernatant (60 µL) from each well of the daughter plates was then transferred to the corresponding wells of new daughter plates (96-shallow-well, V bottom) containing water (Milli-Q, 60 µL/well), and the plates were sealed in preparation for LC-MS/MS analysis (see below). fu was calculated as (analyte to IS MS peak area ratio from Trans-buffer side) / (analyte to IS MS peak area ratio from Cis-plasma side). Mean values for each species were calculated from 3 replicates.
(In equilibrium dialysis only unbound substance equilibrates across the membrane.)

Another series addresses rat M4 (rM4) (Rattus norvegicus, UniProt P08485). Put plainly: Calcium mobilization assay, rat M4. The series is classed as cell-based.
The nature of series [7]: Binding in plasma from human (equilibrium dialysis). Particulars: human, plasma, read-out: human fu,plasma. Type of series: in vitro ADME. The procedure:
as §14, §15

Series [8] is described as follows: Binding in brain homogenate from rat (equilibrium dialysis). The series is classed as in vitro ADME. The procedure:
Binding in brain homogenate from rat.
Determination of fraction unbound (f u) in brain homogenate from rat was conducted using the same methodology and procedure than described for plasma protein binding assay with the following modifications: 1) a final compound concentration of 1 μM was used, 2) naïve rat brains were homogenized in DPBS (1:3 composition of brain: DPBS, w/w) using a Mini-Bead Beater™ machine in order to obtain […]
The diluted fraction unbound (f u2) in brain was calculated as (analyte to IS MS peak area ratio from Trans-buffer side) / (analyte to IS MS peak area ratio from Cis-brain homogenate side). Undiluted fraction unbound for the brain was calculated using the following equation: […]
Mean values for each species were calculated from 3 replicates. […]

Setting [9] is: predicted hepatic clearance from microsomal CLint.
Setting [10] is: fraction unbound, equilibrium dialysis.

rat M4 (rM4), sequence (P08485 whole entry): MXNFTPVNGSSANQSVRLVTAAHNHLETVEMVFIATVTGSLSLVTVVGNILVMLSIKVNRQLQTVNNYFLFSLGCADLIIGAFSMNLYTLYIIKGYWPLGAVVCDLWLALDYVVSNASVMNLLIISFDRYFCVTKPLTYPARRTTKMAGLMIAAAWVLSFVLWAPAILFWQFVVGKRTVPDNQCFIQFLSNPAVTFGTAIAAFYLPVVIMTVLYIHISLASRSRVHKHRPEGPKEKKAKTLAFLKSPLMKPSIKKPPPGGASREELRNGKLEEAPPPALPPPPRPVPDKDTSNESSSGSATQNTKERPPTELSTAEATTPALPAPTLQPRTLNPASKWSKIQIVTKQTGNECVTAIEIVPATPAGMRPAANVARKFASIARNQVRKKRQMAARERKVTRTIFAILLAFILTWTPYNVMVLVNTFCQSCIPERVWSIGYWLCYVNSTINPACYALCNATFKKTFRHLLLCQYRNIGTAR

As to `Cc1cc(C)c2c(n1)sc1c(N3CC4(COC4)C3)ncnc12` [VU6007215], the “rat CLhep” value in series [1] is 63 mL/min/kg. In series [2], the Kp is listed as 4.47 and the “Kp,uu” value is 0.40.

Broadly, the CLint scaled is the rate of metabolic loss divided by the concentration. With `Cc1nc(C)c2c(n1)sc1c(N3CC4(C3)CC(F)(F)C4)ncnc12` [14h], in series [3] (0.25 h, total brain to total plasma ratio, 0.2 mg/kg), the “Kp, brain:plasma” value turned out to be 5.07. The “Kp,uu, brain:plasma” value in [3] (0.25 h, unbound brain to unbound plasma ratio, 0.2 mg/kg) is given as 1.27; in series [3] (0.25 h, unbound brain to unbound plasma ratio, listed as VU6015976, 0.2 mg/kg), 0.76. For the same compound, the Kp at 0.25 h in [3] (male, Sprague-Dawley, rat, brain / plasma, iv, 0.2 mg/kg, total brain to total plasma ratio) was more than 5. Moreover, in series [3] (male, Sprague-Dawley, rat, brain / plasma, iv, 0.2 mg/kg, unbound brain to unbound plasma ratio), the Kp uu at 0.25 h is more than 1. In addition, the intrinsic clearance (CLint scaled) at 1 µM in series [4] (pH 7.4, rat liver microsomes) is 121 mL/min/kg; in [5] (pH 7.4, human liver microsomes), 45 mL/min/kg. Moreover, in series [4] (setting [9]), the “CLhep, rat” value is 44 mL/min/kg. For the same compound, on human M4 (hM4) (14h vs 14c, 22g vs 14j, 22j vs 14k, 22k vs 14g, 22f vs 14e), the “fold increase in hM4 potency (EC50) vs comparator analogue” value was 16 fold. The Emax at human M4 (hM4) (calcium mobilization, hM4/Gqi5-CHO cells, EC20 acetylcholine, read-out: hM4 %ACh Max) worked out at 50%. Besides, the EC50 at human M4 (hM4) (calcium mobilization, hM4/Gqi5-CHO cells, EC20 acetylcholine, read-out: hM4 EC50) is 0.1 µM; at human M4 (hM4) (calcium mobilization, hM4/Gqi5-CHO cells, EC20 acetylcholine, read-out: hM4 pEC50 (converted)) it was 0.102 µM; at rat M4 (rM4), 0.38 µM. In addition, in series [5] (setting [9]), the “CLhep, human” value is 14 mL/min/kg. For the same compound, the fraction unbound at 6 h, 5 µM in series [6] (setting [10]) is 0.132; in series [6] (in %), more than 0.05; in series [7] (setting [10]), 0.035; in series [7] (in %) it was 0.01 to 0.05. In [8] (fraction unbound, equilibrium dialysis, rat brain homogenates), the rat fbrain is 0.033. Also, the fraction unbound at 6 h, 1 µM in [8] (rat, brain homogenate, in %, read-out: fu,brain (rat brain homogenate)) lay in the range of 0.012 to 0.033.

On to `COc1cc(N2CC(Nc3ncnc4c3ccc3nn(C)c(C)c34)C2)c(Cl)cn1` [VU6017649], for which the “rat CLhep” value in series [1] is 44 mL/min/kg. Moreover, in series [2], the Kp is listed as 1.55 and the “Kp,uu” value was 3.88.

These data come from article PMC11487561 (ACS Chemical Neuroscience, 2024).
